Read-outs that look alike come from different tables or passages of the source.
What was measured:
[1] = Pharmacokinetics in mouse (oral / intravenous); format: in vivo; conditions: female CD1 mice; for clearance / Vd: mouse; for Vd: read-out: Vd ss
Protocol: Female CD1 mice (N=3) received a single oral (gavage) or a single intravenous (bolus) injection of compound. […] Consecutive blood samples were taken sub-lingually under isofluorane inhalation from animals after 0.083 (IV), 0.25, 0.5, 1, 2, 4, 6 and 24 h and were further processed to obtain plasma. Samples were protein precipitated and analysed by LC/MS/MS.

[2] = molecular target: Full length SHP2 protein (Recombinant Human SHP-2) (Homo sapiens (Human), UniProt Q06124); assay: SHP2 biochemical assay (DiFMUP substrate, activating peptide IRSI_2pY)
Protocol: The inhibition of SHP2 by compounds of the invention was monitored using the surrogate substrate DiFMUP after protein activation by a peptide bearing two appropriately spaced phosphotyrosine. […] The generation of the DiFMU product by activated SHP2 was monitored through Fluorescence measurement with a PerkinElmer Envision reader. The inhibitor dose response curves were analyzed with Genedata Screener.

[3] = molecular target: auto-activated mutant protein SHP2 E76K (Homo sapiens (Human), UniProt Q06124, E76K); assay: SHP2 active mutant E76K biochemical assay with and without activating peptide
Protocol: The inhibition of SHP2 by compounds of the invention was monitored using the surrogate substrate DiFMUP after protein activation by a peptide bearing two appropriately spaced phosphotyrosine. Full length SHP2 protein (Recombinant HumanSHP-2, E. coli derived Ser2Arg593, N-terminal 6His tag from R&D systems; 0.0.24 nM) was incubated with activating peptide, IRSI_2pY (New England Peptide, 140 nM) and DiFMUP (molecular probes, 80 uM) at RT in buffer (HEPES pH 7.2 60 mM, DDT 5 mM, KCl 75 mM, NaCl 75 mM, EDTA 1 mM, Tween 20 0.05%) in presence of compound (10 concentrations range, top concentration 50 μM) for 60 min. The generation of the DiFMU product by activated SHP2 was monitored through Fluorescence measurement with a PerkinElmer Envision reader. The inhibitor dose response curves were analyzed with Genedata Screener.

pERK1/2 in KYSE520 cells = assay: p-Erk cellular assay in KYSE520 (Mesoscale); format: cell-based; conditions: read-out: pERK1/2 in Cell KYSE520 IC50
Protocol: p-Erk Cellular Assay in KYSE520: The effect of SHP2 inhibitors on pERK level was assessed using phospho-specific antibody using Mesoscale quantification platform. For measuring change in pERK levels using mesoscale, 30,000 cells of KYSE520 cells were plated in 96-well tissue culture treated plate in 175 μl volume of media. After an overnight incubation at 37° C., various SHP2 inhibitors were added in different concentration to each well maintaining duplicate wells across plates and incubated with compounds for 2 h at 37° C. followed by a wash with ice cold PBS buffer. The cells were then lysed in lysis buffer and processed and analyzed for p-ERK/ERK as per manufacturer's instructions (Mesoscale discovery, cat No. […]-3).

[4] = molecular target: Kv11.1 (hERG) ion channel (Homo sapiens (Human), UniProt Q12809); assay: hERG patch clamp in Kv11.1 transfected HEK293 cells; format: cell-based
Protocol: Inhibition of the ion channel hErg (or Kv11.1) current causes QT interval prolongation resulting in potentially fatal ventricular tachyarrhythmia called Torsade de Pointes.
hERG ion channel activity was assessed using a patch clamp technique in stable Kv11.1 (hERG) transfected human embryonic kidney cell line (HEK293). Whole cell recordings were carried out with an automated patch clamp device Patchliner™ from Nanion Technologies, Munich following manufacturer recommendation. Different concentrations of the test compound or reference, quinidine, were applied to whole cells suspension and current was measured using a pulse pattern with fixed amplitudes.

[5] = molecular target: Recombinant human SHP2 protein (2-593) (Homo sapiens (Human), UniProt Q06124); assay: SPR binding assay; conditions: SPR, 25° C.
Protocol: The immobilization buffer contained 20 mM HEPES/NaOH (pH 7.4), 150 mM NaCl, 0.05% Tween 20. Inhibitors (stored as 10 mM stock solutions in 100% DMSO) were diluted in running buffer (20 mM HEPES/NaOH pH 7.4, 150 mM NaCl, 1 mM DTT, 5 mM MgCl2 0.1 mM EGTA, 0.05% Tween 20, 2% DMSO @25° C.) and analysed with a Biacore 4000 (Biacore AB, GE Healthcare Life Sciences, Uppsala, Sweden) using a 2-fold dilution series. The highest compound concentration varied according to the expected dissociation constant, but all compounds were tested at 10 different concentrations. Interaction analysis cycles were run at 30 μL/min and consisted of a 140 s sample injection followed by 600 s of buffer flow (dissociation phase). All sensograms were evaluated by first subtracting the binding response recorded from the control surface (reference spot), followed by subtracting a buffer blank injection. To determine kinetic rate constants, data sets were fitted to a simple 1:1 interaction model including a term for mass transport using numerical integration and nonlinear curve fitting. Equilibrium analysis was performed by fitting the response at the end of the association phase to a single-site binding isotherm.

Kyse-520 xenografts = assay: Kyse-520 xenograft (EGFR amplified esophageal cancer); conditions: H2D Rag2 mice, 0.8, 2.5 or 8 mg/kg daily oral gavage
Description: H2D Rag2 mice were inoculated with 5 million KYSE-520 cells mixed with matrigel.
In vivo efficacy of compound 74a in an EGFR amplified setting was investigated in Kyse-520 xenografts. H2D Rag2 mice were inoculated with 5 million KYSE-520 cells mixed with matrigel.

[6] = system: MCP-1 production in U937 cells; assay: Cytokine release assay in U937 cells (MCP-1 AlphaLISA, IL-6 stimulation); format: cell-based; conditions: Homo sapiens, U-937; U937 cells stimulated with IL-6 (50 ng/mL) overnight
Protocol: Selected compounds were tested in a cytokine release assay in monocytic cells (U937) to test their anti-inflammatory properties. Cells were plated in a 96-well cell culture plate using serum-free media. The cells were treated with indicated concentrations of SHP-2 inhibitors for 30 minutes followed by overnight stimulation with recombinant IL-6 (50 ng/mL). The MCP-1 production was measured in the culture supernatant using a MCP-1 AlphaLISA kit (Perkin Elmer).

[7] = SHP-2 IC50 (nM) peptide, wild-type SHP-2, with activating peptide
[8] = activating peptide IRSI_2pY 140 nM, DiFMUP, 60 min, read-out: SHP-2 biochemical assay IC50
[9] = with activating peptide IRSI_2pY 140 nM, read-out: SHP-2 E76Z IC50 (nM) peptide
[10] = without activating peptide, read-out: SHP-2 E76Z IC50 (nM) No peptide
[11] = SHP-2 biochemical assay IC50 (μM), activating peptide IRSI_2pY 140 nM, DiFMUP, 60 min
[12] = SHP-2 E76Z IC50 (nM) No peptide, without activating peptide
[13] = SHP-2 E76Z IC50 (nM) peptide, with activating peptide IRSI_2pY 140 nM

Sequence of Kv11.1 (hERG) ion channel (Q12809 whole entry): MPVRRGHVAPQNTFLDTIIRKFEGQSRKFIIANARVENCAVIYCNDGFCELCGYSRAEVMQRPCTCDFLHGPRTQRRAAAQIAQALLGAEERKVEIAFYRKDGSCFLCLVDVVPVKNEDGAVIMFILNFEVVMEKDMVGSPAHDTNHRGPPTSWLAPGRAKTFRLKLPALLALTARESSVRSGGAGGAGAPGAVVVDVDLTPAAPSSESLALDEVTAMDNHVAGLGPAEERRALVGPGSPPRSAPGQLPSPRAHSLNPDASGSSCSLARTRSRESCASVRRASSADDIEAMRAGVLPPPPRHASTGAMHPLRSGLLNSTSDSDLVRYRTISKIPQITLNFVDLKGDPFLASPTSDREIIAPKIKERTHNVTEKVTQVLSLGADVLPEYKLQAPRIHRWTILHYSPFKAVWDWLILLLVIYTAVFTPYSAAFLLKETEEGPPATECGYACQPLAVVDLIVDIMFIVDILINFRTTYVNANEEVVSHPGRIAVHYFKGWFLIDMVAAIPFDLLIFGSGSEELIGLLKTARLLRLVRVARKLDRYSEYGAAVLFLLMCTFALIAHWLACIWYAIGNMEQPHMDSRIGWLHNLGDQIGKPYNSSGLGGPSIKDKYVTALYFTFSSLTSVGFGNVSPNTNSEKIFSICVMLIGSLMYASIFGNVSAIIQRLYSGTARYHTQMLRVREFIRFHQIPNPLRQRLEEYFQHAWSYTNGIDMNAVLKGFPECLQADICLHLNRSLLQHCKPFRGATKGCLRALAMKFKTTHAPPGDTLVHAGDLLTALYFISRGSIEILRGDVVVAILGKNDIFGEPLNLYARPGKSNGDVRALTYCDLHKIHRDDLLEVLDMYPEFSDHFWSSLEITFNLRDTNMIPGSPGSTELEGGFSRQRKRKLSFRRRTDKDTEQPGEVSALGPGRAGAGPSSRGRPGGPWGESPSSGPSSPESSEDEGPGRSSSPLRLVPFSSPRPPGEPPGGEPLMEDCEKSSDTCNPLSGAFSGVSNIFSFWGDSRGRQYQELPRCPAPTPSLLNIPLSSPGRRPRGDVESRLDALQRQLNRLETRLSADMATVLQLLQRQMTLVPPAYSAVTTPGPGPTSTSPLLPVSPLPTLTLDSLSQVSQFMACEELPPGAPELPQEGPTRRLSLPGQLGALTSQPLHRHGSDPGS
Sequence of Full length SHP2 protein (Recombinant Human SHP-2) (Q06124 2-593): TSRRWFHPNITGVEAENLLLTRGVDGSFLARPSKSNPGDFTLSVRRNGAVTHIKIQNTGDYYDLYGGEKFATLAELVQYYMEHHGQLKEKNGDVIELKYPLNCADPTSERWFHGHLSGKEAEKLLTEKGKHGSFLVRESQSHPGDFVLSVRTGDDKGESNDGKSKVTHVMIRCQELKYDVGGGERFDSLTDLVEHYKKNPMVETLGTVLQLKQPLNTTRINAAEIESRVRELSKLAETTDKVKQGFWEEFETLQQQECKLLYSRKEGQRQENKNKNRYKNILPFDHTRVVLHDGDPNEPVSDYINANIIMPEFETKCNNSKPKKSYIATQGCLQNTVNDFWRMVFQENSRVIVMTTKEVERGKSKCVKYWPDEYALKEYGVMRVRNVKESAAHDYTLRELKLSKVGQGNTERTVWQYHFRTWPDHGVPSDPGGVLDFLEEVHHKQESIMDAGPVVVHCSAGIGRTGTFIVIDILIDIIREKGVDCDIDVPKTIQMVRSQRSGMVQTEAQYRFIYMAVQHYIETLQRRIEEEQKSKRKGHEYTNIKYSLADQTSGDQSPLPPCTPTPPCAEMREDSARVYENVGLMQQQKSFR
Sequence of auto-activated mutant protein SHP2 E76K (Q06124 whole entry E76K): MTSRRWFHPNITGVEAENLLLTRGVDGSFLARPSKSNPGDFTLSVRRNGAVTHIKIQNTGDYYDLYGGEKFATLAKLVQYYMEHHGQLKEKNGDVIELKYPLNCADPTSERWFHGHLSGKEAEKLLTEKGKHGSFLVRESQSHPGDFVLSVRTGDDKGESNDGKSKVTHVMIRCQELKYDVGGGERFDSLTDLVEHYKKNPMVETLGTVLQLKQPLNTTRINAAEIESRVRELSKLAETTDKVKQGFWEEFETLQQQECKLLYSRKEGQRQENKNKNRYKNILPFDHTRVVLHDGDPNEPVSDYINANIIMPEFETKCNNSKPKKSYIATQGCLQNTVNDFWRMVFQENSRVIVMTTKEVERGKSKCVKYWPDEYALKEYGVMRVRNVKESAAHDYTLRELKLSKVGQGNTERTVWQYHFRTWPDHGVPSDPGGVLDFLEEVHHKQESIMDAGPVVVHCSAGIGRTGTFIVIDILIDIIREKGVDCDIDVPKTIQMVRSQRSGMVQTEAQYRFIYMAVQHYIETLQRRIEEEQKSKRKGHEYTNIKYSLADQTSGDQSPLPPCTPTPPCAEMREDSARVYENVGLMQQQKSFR
Sequence of Recombinant human SHP2 protein (2-593) (Q06124 2-593): as the sequence (Q06124 2-593) above

Cc1nc(N2CCC3(CC2)CO[C@@H](C)[C@H]3N)cc(=O)n1-c1cccc(Cl)c1Cl (single isomer, unassigned) [Compound 3b]
Fz [1]: 85%
clearance ([1]; plasma, intravenous): 8 mL/min/kg
Vd ([1]; plasma, intravenous): 2.77 L/kg

Cc1c(N2CCC3(CC2)Cc2ncccc2[C@H]3N)nc(C)n(-c2cccc(Cl)c2Cl)c1=O (single isomer, unassigned) [Compound 66a]
IC50 [2, 7]: 48 nM
IC50 [2, 8]: 73 nM
IC50 [3, 9]: 200 nM
IC50 [3, 10]: 97 nM

Cc1c(N2CCC3(CC2)Cc2ncccc2[C@H]3N)nc(C)n(-c2cccc(Cl)c2Cl)c1=O (single isomer, unassigned) [Compound 66b]
IC50 [2, 7]: 0.7 nM
IC50 [2, 11]: 1 nM
IC50 (pERK1/2 in KYSE520 cells; Homo sapiens, KYSE-520, 2 h): 5 nM
Ki [4]: 7500 nM
Split between hErg and cell activity Ki (patch Clamp)/IC50 (KYSE) ([4]; human): 580
Fz [1]: 100%
clearance ([1]; plasma, intravenous): 8.33 mL/min/kg
Vd ([1]; plasma, intravenous): 1.96 L/kg
IC50 [3, 12]: 1.9 nM
IC50 [3, 13]: 1.9 nM

Cc1c(N2CCC3(CC2)Oc2ccccc2[C@H]3N)nc(C)n(-c2cccc(Cl)c2Cl)c1=O (single isomer, unassigned) [Compound 81b]
IC50 [2, 7]: 0.3 nM
IC50 [2, 8]: 1.4 nM
IC50 (pERK1/2 in KYSE520 cells; Homo sapiens, KYSE-520, 2 h): 6.6 nM
Fz [1]: 48%
clearance ([1]; plasma, intravenous): 2.5 mL/min/kg
Vd ([1]; plasma, intravenous): 0.68 L/kg
IC50 [3, 12]: 0.5 nM
IC50 [3, 13]: 1.1 nM

Cc1c(N2CCC3(CC2)Cc2ccccc2[C@H]3N)nc(C)n(-c2cccc(Cl)c2Cl)c1=O [Compound 74a, (3M)-6-[(1S)-1-amino-1,3-dihydrospiro[indene-2,4′-piperidin]-1′-yl]-3-(2,3-dichlorophenyl)-2,5-dimethyl-3,4-dihydropyrimidin-4-one]
IC50 (pERK1/2 in KYSE520 cells; 2 h): 2 nM
Ki [4]: 1200 nM
Split between hErg and cell activity Ki (patch Clamp)/IC50 (KYSE) [4]: 704
Fz [1]: 100%
clearance ([1]; plasma, intravenous): 8.33 mL/min/kg
Vd ([1]; plasma, intravenous): 5.1 L/kg
koff [5]: < 0.0001 s⁻¹
residence time [5]: > 160 min
tolerability (Kyse-520 xenografts): All doses were well tolerated

Cc1c(N2CCC3(CC2)C[C@@H](C)C[C@H]3N)nc(C)n(-c2cccc(Cl)c2Cl)c1=O [Compound 77, (3M)-6-[(1R,3R)-1-amino-3-methyl-8-azaspiro[4.5]decan-8-yl]-3-(2,3-dichlorophenyl)-2,5-dimethyl-3,4-dihydropyrimidin-4-one]
IC50 [2, 11]: 6 nM
IC50 (pERK1/2 in KYSE520 cells; Homo sapiens, KYSE-520, 2 h): 74 nM
IC50 [6]: 731 nM

[2H]C([2H])([2H])c1c(N2CCC3(CC2)Cc2ccccc2[C@H]3N)nc(C)n(-c2cccc(Cl)c2Cl)c1=O [Compound 106, 6-[(1S)-1-amino-1,3-dihydrospiro[indene-2,4′-piperidin]-1′-yl]-3-(2,3-dichlorophenyl)-5-(2H3)methyl-2-methyl-3,4-dihydropyrimidin-4-one]
IC50 [2, 7]: 1.7 nM
IC50 [2, 11]: 6 nM
IC50 (pERK1/2 in KYSE520 cells; Homo sapiens, KYSE-520, 2 h): 10 nM
IC50 [3, 9]: 6.4 nM
IC50 [3, 10]: 3.5 nM

Cc1c(N2CCC3(CC2)Cc2ccccc2[C@H]3N)nc(C)n(-c2cccc(C#N)c2Cl)c1=O [Compound 108, 3-4-[(1S)-1-amino-1,3-dihydrospiro[indene-2,4′-piperidin]-1′-yl]-2,5-dimethyl-6-oxo-1,6-dihydropyrimidin-1-yl-2-chlorobenzonitrile]
IC50 [2, 11]: 7 nM
IC50 (pERK1/2 in KYSE520 cells; Homo sapiens, KYSE-520, 2 h): 32 nM

Cc1c(N2CCC3(CC2)Cc2ccccc2[C@H]3N)nc(C)n(-c2ccc(F)c(Cl)c2Cl)c1=O [Compound 109, 6-((1S)-1-amino-1,3-dihydrospiro[indene-2,4′-piperidin]-1′-yl]-3-(2,3-dichloro-4-fluorophenyl)-2,5-dimethyl-3,4-dihydropyrimidin-4-one]
IC50 [2, 8]: 2 nM
IC50 (pERK1/2 in KYSE520 cells; Homo sapiens, KYSE-520, 2 h): 4 nM

Cc1c(F)ccc(-n2c(C)nc(N3CCC4(CC3)Cc3ccccc3[C@H]4N)c(C)c2=O)c1Cl [Compound 110, 6-[(1S)-1-amino-1,3-dihydrospiro[indene-2,4′-piperidin]-1′-yl]-3-(2-chloro-4-fluoro-3-methylphenyl)-2,5-dimethyl-3,4-dihydropyrimidin-4-one]
IC50 [2, 8]: 2 nM
IC50 (pERK1/2 in KYSE520 cells; Homo sapiens, KYSE-520, 2 h): 7 nM

Cc1c(N2CCC3(CC2)Cc2ccccc2[C@H]3N)nc(C)n(-c2cccc(F)c2Cl)c1=O [Compound 112, 6-[(1S)-1-amino-1,3-dihydrospiro[indene-2,4′-piperidin]-1′-yl]-3-(2-chloro-3-fluorophenyl)-2,5-dimethyl-3,4-dihydropyrimidin-4-one]
IC50 [2, 8]: 4 nM
IC50 (pERK1/2 in KYSE520 cells; Homo sapiens, KYSE-520, 2 h): 14 nM

Cc1c(N2CCC3(CC2)Cc2ccccc2[C@H]3N)nc(C)n(-c2ccc(F)c(F)c2Cl)c1=O [Compound 113, 6-[(1S)-1-amino-1,3-dihydrospiro[indene-2,4′-piperidin]-1′-yl)-3-(2-chloro-3,4-difluorophenyl)-2,5-dimethyl-3,4-dihydropyrimidin-4-one]
IC50 [2, 8]: 6 nM
IC50 (pERK1/2 in KYSE520 cells; Homo sapiens, KYSE-520, 2 h): 15 nM

Cc1c(N2CCC3(CC2)CO[C@@H](C)[C@H]3N)nc(N)n(-c2cccc(Cl)c2Cl)c1=O [Compound 116, 2-Amino-6-((3S,4S)-4-amino-3-methyl-2-oxa-8-aza-spiro[4.5]dec-8-yl)-3-(2,3-dichloro-phenyl)-5-methyl-3H-pyrimidin-4-one]
IC50 [2, 8]: 200 nM
IC50 (pERK1/2 in KYSE520 cells; Homo sapiens, KYSE-520, 2 h): 2190 nM

Cc1c(N2CCC3(CC2)Cc2ccccc2[C@H]3N)nc(N)n(-c2cccc(Cl)c2Cl)c1=O [Compound 117, 2-amino-6-[(3S)-3-amino-1,3-dihydrospiro[indene-2,4′-piperidin]-1′-yl]-3-(2,3-dichlorophenyl)-5-methyl-3,4-dihydropyrimidin-4-one]
IC50 [2, 8]: 15 nM
IC50 (pERK1/2 in KYSE520 cells; Homo sapiens, KYSE-520, 2 h): 6 nM
Ki [4]: 2500 nM
Split between hErg and cell activity Ki (patch Clamp)/IC50 (KYSE) ([4]; human): 417

Nc1nc(N2CCC3(CC2)Cc2ccccc2[C@H]3N)cc(=O)n1-c1cccc(Cl)c1Cl [Compound 118, 2-amino-6-[(3S)-3-amino-1,3-dihydrospiro[indene-2,4′-piperidin]-1′-yl]-3-(2,3-dichlorophenyl)-3,4-dihydropyrimidin-4-one]
IC50 [2, 8]: 16 nM
IC50 (pERK1/2 in KYSE520 cells; Homo sapiens, KYSE-520, 2 h): 51 nM

Cc1nc(N2CCC3(CC2)CO[C@@H](C)[C@H]3N)c(CO)nc1-c1cccc(Cl)c1Cl [RMC-4550, reference compound]
Ki [4]: 600 nM
Fz [1]: 86%
Vd ([1]; in vivo): 6.1 L/kg
clearance ([1]; plasma, intravenous): 20 mL/min/kg

CC1(N)CCN(c2cnc(-c3cccc(Cl)c3Cl)c(N)n2)CC1 [SHP-099, reference compound]
clearance ([1]; in vivo): 95 mL/min/kg
Vd ([1]; in vivo): 5 L/kg
